From ChEMBL document CHEMBL1201862, “PubChem BioAssay data set” (2004)
Activity calls are given as the source filed them.

What was measured:
INS1 = test: beta cell apoptosis inhibitors, cytokine rescue, dose response, luminescence, retest (AID 449756); format: functional, cell-based; conditions: Rattus norvegicus, INS1;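 also: cell death triggered by IL-1 beta plus TNF-alpha plus IFN-gamma mixture; protective hits raise ATP signal compared with cytokine alone wells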
[1] = control 3'UTR Renilla luciferase suppression, dose response, counter-screen for Shn3 inhibitor project, cell-based, Clone20-Shn3RL, cherry-picked (AID 624133); format: functional
Protein RecA = molecular target: T1, Protein RecA (Mycobacterium tuberculosis, UniProt P9WHJ3); test: Fluorescence Cell-Free Homogeneous Dose Retest to Identify Inhibitors of RecA-Intein Splicing Activity. [Related pubchem assays (depositor defined):AID2097, AID2223, AID489010, AID492950]; format: functional
T1 sequence (P9WHJ3 whole entry): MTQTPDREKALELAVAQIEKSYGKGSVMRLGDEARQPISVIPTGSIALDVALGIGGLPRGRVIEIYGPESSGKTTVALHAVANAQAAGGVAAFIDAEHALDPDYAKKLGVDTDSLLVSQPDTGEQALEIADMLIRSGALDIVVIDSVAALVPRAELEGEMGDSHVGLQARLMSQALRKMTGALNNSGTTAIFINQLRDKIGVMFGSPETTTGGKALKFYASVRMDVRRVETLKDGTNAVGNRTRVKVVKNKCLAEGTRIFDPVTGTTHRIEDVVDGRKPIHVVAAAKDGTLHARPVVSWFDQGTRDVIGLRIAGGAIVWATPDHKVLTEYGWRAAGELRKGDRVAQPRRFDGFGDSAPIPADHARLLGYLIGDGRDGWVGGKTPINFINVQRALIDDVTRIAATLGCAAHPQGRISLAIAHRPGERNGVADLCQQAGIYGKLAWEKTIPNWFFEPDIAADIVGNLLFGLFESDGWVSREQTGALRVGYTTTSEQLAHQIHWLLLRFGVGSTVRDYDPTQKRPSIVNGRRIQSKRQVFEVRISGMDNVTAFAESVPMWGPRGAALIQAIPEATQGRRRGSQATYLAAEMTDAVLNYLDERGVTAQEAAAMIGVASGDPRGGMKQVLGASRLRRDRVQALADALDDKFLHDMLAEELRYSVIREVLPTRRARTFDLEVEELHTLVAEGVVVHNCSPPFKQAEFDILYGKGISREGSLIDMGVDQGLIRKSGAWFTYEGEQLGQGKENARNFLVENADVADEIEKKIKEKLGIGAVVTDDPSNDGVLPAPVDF

[2] = molecular target: T2, Replicative DNA helicase DnaB (Mycobacterium tuberculosis, UniProt P9WMR3); test: DnaB intein splicing inhibitors, dose response, biochemical, cell-free fluorescence (AID 449749); format: functional
T2 sequence (P9WMR3 whole entry): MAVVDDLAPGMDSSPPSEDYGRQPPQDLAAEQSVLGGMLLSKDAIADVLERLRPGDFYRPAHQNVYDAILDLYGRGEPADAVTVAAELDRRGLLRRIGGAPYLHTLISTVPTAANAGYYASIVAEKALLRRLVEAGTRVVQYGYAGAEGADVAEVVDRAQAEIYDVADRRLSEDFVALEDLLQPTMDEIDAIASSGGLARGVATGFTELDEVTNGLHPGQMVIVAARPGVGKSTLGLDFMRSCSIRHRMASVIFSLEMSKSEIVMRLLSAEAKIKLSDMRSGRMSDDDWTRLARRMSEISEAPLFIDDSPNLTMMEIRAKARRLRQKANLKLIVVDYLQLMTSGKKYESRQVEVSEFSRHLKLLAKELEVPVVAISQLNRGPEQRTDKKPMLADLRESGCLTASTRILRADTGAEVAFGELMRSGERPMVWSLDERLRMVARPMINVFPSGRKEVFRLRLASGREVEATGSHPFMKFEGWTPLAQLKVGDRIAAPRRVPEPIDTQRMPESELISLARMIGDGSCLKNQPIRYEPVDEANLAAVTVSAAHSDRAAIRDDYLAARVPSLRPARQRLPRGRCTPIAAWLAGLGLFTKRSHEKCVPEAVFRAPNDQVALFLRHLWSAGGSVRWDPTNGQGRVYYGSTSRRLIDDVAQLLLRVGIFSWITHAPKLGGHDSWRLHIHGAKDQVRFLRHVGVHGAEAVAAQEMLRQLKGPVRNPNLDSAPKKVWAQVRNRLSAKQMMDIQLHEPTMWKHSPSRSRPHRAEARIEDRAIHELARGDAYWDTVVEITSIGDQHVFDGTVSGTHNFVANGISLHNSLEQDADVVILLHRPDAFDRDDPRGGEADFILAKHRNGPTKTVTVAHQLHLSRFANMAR

[3] = Shn3 3'UTR reporter inhibitors, dose response, cell-based, Clone20 osteoblasts, firefly luciferase, cherry-picked (AID 624132); format: functional;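 also: firefly luciferase luminescence from reporter carrying the Shn3 3'UTR in osteoblasts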
[4] = HepG2 cell cytotoxicity, dose response, cytotoxicity control for Shn3 inhibitor project, CellTiter-Glo, cherry-picked (AID 624134); format: functional, cell-based
[5] = Fluorescence-based cell-based high throughput dose response assay for inhibitors of the interaction of nucleotide-binding oligomerization domain containing 2 (NOD2) and the receptor-interacting serine-threonine kinase 2 (RIPK2).; format: functional; conditions: Homo sapiens
[6] = molecular target: T3, Corticotropin-releasing factor receptor 2/Corticotropin-releasing factor-binding protein (Homo sapiens, UniProt P24387+Q13324); test: activators of CRF receptor 2 with binding protein – uHTS hits, confirmation (AID 602473); format: functional; conditions: read-out: EC50_Mean
T3 sequence (Q13324 whole entry): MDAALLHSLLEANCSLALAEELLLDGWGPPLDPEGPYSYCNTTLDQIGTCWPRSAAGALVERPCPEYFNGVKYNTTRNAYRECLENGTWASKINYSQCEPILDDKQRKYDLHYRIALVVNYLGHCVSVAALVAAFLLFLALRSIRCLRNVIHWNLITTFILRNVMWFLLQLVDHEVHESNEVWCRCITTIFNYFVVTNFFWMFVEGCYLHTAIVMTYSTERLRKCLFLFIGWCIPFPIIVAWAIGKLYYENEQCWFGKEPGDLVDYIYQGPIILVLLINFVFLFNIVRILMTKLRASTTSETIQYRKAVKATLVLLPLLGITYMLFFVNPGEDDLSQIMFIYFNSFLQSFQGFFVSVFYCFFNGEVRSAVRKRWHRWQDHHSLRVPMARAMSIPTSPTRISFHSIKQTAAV
T3 sequence (P24387 whole entry): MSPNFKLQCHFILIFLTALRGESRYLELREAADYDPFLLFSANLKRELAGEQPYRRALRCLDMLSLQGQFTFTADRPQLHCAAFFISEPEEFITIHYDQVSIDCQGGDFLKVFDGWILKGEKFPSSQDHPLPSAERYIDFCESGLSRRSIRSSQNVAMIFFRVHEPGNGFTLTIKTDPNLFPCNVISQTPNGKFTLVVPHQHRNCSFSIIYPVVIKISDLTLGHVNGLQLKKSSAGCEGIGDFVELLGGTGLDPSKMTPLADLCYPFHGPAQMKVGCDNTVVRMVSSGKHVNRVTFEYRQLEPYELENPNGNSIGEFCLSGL

[7] = molecular target: T3, Corticotropin-releasing factor receptor 2/Corticotropin-releasing factor-binding protein; test: Dose Response confirmation of uHTS hits for small molecule antagonists of the CRF-binding protein and CRF-R2 receptor complex.; format: functional; conditions: read-out: IC50_Mean
[8] = CRF-BP/CRF-R2 complex antagonists, dose response, cell-based, uHTS hits, 384-well (AID 651639); format: functional, Homo sapiens; conditions: read-out: IC50_Mean
[9] = molecular target: T4, Heat shock factor protein 1 (Mus musculus, UniProt P38532); test: HSF1 potentiators in luciferase reporter cells, confirmation, cell-based, NIH3T3, luminescence, dose retest (AID 435004); format: functional;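 also: stress induced by proteasome inhibitor MG132 added 30 min after compound; luciferase reporter driven by HSF1 response element in NIH3T3 cells; actives raise luminescence as potentiators of the MG132 stress response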
T4 sequence (P38532 whole entry): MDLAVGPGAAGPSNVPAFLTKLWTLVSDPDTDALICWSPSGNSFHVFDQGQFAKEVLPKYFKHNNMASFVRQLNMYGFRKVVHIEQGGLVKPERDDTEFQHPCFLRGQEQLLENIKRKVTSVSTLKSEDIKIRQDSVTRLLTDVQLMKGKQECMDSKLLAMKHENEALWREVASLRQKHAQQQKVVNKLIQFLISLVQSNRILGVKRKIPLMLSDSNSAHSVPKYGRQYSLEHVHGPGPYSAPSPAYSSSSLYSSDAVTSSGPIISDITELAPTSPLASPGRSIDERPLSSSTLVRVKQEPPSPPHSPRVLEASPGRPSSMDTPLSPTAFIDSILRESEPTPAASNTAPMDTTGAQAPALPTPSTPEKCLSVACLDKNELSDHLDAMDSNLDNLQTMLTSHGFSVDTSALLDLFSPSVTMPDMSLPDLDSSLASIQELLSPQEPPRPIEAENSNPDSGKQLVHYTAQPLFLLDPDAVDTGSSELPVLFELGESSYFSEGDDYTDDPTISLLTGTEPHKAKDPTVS

Cytochrome P450 2D6 = Cytochrome P450 2D6 (Homo sapiens, UniProt P10635);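 also: CYP2D6 member of a cytochrome P450 panel assay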
Sequence of Cytochrome P450 2D6 (P10635 whole entry): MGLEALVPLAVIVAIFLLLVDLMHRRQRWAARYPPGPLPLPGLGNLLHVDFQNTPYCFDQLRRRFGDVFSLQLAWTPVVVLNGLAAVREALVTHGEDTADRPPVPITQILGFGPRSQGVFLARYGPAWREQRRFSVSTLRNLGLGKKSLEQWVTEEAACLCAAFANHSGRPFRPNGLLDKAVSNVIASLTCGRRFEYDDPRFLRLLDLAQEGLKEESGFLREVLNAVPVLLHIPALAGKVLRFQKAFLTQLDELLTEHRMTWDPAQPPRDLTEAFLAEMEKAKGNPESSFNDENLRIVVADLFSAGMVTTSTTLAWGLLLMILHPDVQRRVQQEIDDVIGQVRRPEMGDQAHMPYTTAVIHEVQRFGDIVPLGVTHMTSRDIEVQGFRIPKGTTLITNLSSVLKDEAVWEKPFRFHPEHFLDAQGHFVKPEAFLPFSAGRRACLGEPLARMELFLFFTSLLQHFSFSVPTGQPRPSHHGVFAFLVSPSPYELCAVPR

O=C(NCc1cccnc1)/C(=C\c1ccc(-c2ccc(Br)cc2)o1)S(=O)(=O)c1ccccc1
AC50 (INS1): 2.9 µM (active) | AC50 [1]: 13 µM (active) | EC50 (Protein RecA): 20.2 µM (active) | AC50 [2]: > 380 µM (inconclusive) | AC50 [3]: 6.33 µM (active) | AC50 [4]: 11.3 µM (active) | IC50 [5]: 5.51 µM (active)

CCOC(=O)c1c(-c2ccccc2)oc2ccc(OC(C)C(=O)O)cc12 (stereo not given)
EC50 [6]: > 53 µM (inactive) | IC50 [7]: < 0.368 µM (active) | IC50 [8]: 0.34 µM (active)

COc1cccc(CSc2nnc(C(F)(F)F)n2Cc2ccc(F)cc2)c1
EC50 [6]: > 53 µM (inactive) | IC50 [7]: 7.2 µM (active) | IC50 [8]: > 20 µM (inactive) | EC50 [9]: > 260 µM (inactive) | AC50 (Cytochrome P450 2D6): 10 µM (inconclusive)
